Data taken from patent US7208270B2, “Method for diagnosing a person having multiple sclerosis” (priority 2001, dated 2007).
“Also recorded” adds a separate entry of the source.

How the values were obtained:
[1] = tested on: SARG-1 over-expressing PC12 cells; assay: Viability of SARG-1 over-expressing PC12 cultures treated with kinase inhibitors; assay type: cell-based, rat; details: staurosporine at 100 nM, in comparison to vector control cultures
Excerpt: (§1) To examine the expression and function of SARG-1 in a neural cell culture system, standard molecular biology techniques (Sanbrook et al, 1989) were used to clone the rat SARG-1 coding sequence (rSARG-1479) into the pIRESII-EGFP eukaryotic expression vector (Clontech) under the control of a CMV promoter which bicistroni-cally translates through an internal IRES sequence both SARG-1477 and enhanced green fluorescent protein. The rat pheochromocytoma PC12 cell line was maintained in DMEM supplemented with 8% horse serum, 8% fetal calf serum and an antibiotic-antimycotic mix containing 100 units/ml penicillin, 100 μg/ml streptomycin, and 0.25 μg/ml amphotericin B (all from GibcoBRL) in a fully humidified air atmosphere containing 5% CO2 at 37° C. Semi-confluent cultures in 6-well plates were transfected with pIRES2-EGFP-SARG-1 or empty vector for 18 h in the presence of the uptake enhancing cationic lipid mix pFx1 (Invitrogen) at a 6:1 lipid to DNA ratio in serum-free opti-MEN (Gibco). Stable transfectant colonies were picked from separate wells after selection in […] geneticin (Gibco) and clones with similar EGFP fluorescence expanded from independent transfections.
(§2) Over-expression of SARG-1 also enhances terminal differentiation of PC12 cells induced by nerve growth factor (FIG. 14).

[2] = tested on: PC12 cells transfected with empty vector; assay: Vector control PC12 cultures treated with staurosporine; assay type: cell-based, rat; details: 100 nM
Excerpt: as §1, §2

[3] = tested on: SARG-1 over-expressing PC12 cells; assay: Flow cytometrical cell cycle analysis of transfected PC12 cells; assay type: cell-based, rat; details: 100 nM, 24 h, ethanol fixed cells
Excerpt: as §2

[4] = tested on: PC12 cells; details: cited from earlier work

SMILES	effect on viability / cell death [1]	effect on vector control cultures [2]	flow cytometry: sub G0/G1 peak / loss of DNA characteristic of apoptosis [3]	concentration inducing apoptosis ([4]; Fu et al, 1999)	concentration inducing neurite outgrowth ([4]; Hashimoto and Hagino, 1989) [nM]
CN(C)CCCn1cc(C2=C(c3c[nH]c4ccccc34)C(=O)NC2=O)c2ccccc21 [Bisindolylmaleimide I]	No similar effects				
COc1cccc(-c2cc(=O)c3ccccc3o2)c1N [PD 98059]	No similar effects				
COC(=O)[C@@]1(O)C[C@H]2O[C@]1(C)n1c3ccccc3c3c4c(c5c6ccccc6n2c5c31)C(=O)NC4 [X252a]	No similar effects				
CN[C@@H]1C[C@H]2O[C@@](C)([C@@H]1OC)n1c3ccccc3c3c4c(c5c6ccccc6n2c5c31)C(=O)NC4 [staurosporine]	rapid loss in viability	neurite outgrowth	sub G0/G1 peak characteristic for the induction of apoptosis is seen only in SARG-1 over-expressing cells; also recorded: loss of DNA from ethanol fixed cells	above 1 mM	100
